Laboratory results as given in patent publication US20230303486A1, “CYCLOBUTYL-UREA DERIVATIVES” (Idorsia Pharmaceuticals Ltd, priority 2020, published 2023).
Read-outs that look alike come from different tables or passages of the source.

Legend:
[1] = test system: audiogenic generalized convulsive seizures in DBA/2J mice; assay: Audiogenic seizure-sensitive mouse model of generalized convulsive seizures; format: in vivo; conditions: challenge 1h
Method: Compounds were formulated in a 10% polyethylene glycol 400 (PEG 400) / 90% aqueous solution of 0.5 % methylcellulose (MC 0.5%). Firstly drugs are dissolved in PEG 400 and then suspended in MC 0.5 % for oral gavage at Xmg/5 mL/kg (X see table).
• 1. Procedure: Following two days of acclimatisation, auditory seizures are induced in male juvenile DBA/2J mice (22-24 days old; Janvier Labs, France). Each mouse is placed individually in the exposure chamber, an hemispheric acrylic glass dome (diameter: 50 cm) within a sound-attenuated box. The soundattenuated box is equipped with two house lights and a camera system (Fire-I from Unibrain) in order to observe and record the behavioral seizure response. After 60 seconds of habituation, the stimulus, a mixed frequency tone of 15-20 kHz at 110 dB (SASLab Lite, Avisoft Bioacoustics), is played from a speaker that is placed on the top center of the dome. […] Seizures are classified as following: stage 0, normal behavior; stage 1, wild running; stage 2, generalized clonus; stage 3, tonic extension of the hind limbs. • 2. Compounds testing: Acute compound effects on audiogenic generalized convulsive seizures are evaluated in independent groups of 8-10 mice randomly assigned. Following oral administration of compound or vehicle, the maximum seizure stage during sound exposure is assessed. Compounds are given 1 hour before exposure to the stimulus. Each mouse is exposed to the auditory stimulus only once and euthanized afterwards by CO2 inhalation.

[2] = test system: primary neuronal cultures from embryonic rat brains; assay: Rat oscillation assay (FLIPR, neuronal calcium oscillations); format: cell-based; conditions: Rattus norvegicus
Method: This assay is a functional phenotypic assay designed to mimic epileptic seizures using primary neuronal cultures from embryonic rat brains, which form a functional neuronal network that generate synchronized intracellular calcium concentration oscillations when cultured at high density in 384-well plate. The epileptic phenotype is induced by incubating the neurons in magnesium-free assay buffer, that results in increased probability of NMDA receptor activation, leading to an increased frequency and amplitude of intracellular calcium oscillations. Once neurons are incubated with the calcium indicator dye Fluo-8 AM (Tebu-bio), neuronal calcium oscillations can be monitored in real time using FLIPR® Tetra (fluorometric plate reader, Molecular Devices). With these recordings, the effect of anti-epileptic drugs can be quantified. The anti-epileptic effect of compounds, which activate directly or indirectly the Kv7 channels can be modulated by the Kv7 channel blocker XE-991. The assay was performed as described previously (Pacico N, Mingorance-Le Meur A. New In Vitro Phenotypic Assay for Epilepsy: Fluorescent Measurement of Synchronized Neuronal Calcium Oscillations. PLoS ONE 9(1) 2014) with modifications described hereafter.
Animal care followed standard procedures in accordance with swiss institutional guidelines. Dissociated neuronal cultures were obtained from cerebral cortices of embryonic Wistar rats at embryonic stage E18 (Charles River). The uterine horns were removed by caesarian surgery from deeply anesthetized rats (Isofurane) and sacrificed by decapitation. The embryos were decapitated by closing forceps. The brains were isolated and dissected one by one in ice-cold PBS (Life Technologies) under optical control using a binocular. Meninges, olfactory bulbs, and basal ganglia were removed. Cortical hemispheres (still including the hippocampus) were cut in small pieces with tweezers and placed on ice in prechilled Hibernate-E medium (Life technology). The hemispheres were then incubated in 10 mL of Hibernate-E containing 15 U/mL papain (Worthington) for 25 min at 30° C. with gentle mixing every 10 min. Genomic DNA was then digested by prolonging the incubation during 10 min at 37° C. in presence of 4 U/mL rDNase I (Ambion). The obtained suspension was then centrifuged at 800 g for 5 min and the cell pellet was resuspended in 2 mL Hibernate-E and gently dissociated by pipetting up and down 10 times with a plastic Pasteur pipette resulting in a homogenous cell suspension. This suspension was immediately filtered through a 70 µm cell strainer (MACS® SmartStrainer, Miltenyi), collected in 10 mL Hibernate-E and centrifuged at 800 g for 5 min. The cell pellet was resuspended in Neurobasal medium, supplemented with 2% B-27, 0.5 mM Glutamax-I, 100 U/mL penicillin, 100 µg/mL streptomycin (Life Technologies) and diluted at the final concentration of 300′000 cells/mL. One day before plating the cells, 384-well plates were coated with 25 µL/well of 0.1 % poly-L-lysine solution (Sigma), incubated overnight at 37° C., washed two times with sterile distilled water and allowed to dry at room temperature for >2 h. The neurons were seeded at a density of 15′000 cells/well in 50 µL/well in a 384-well black, clear-bottomed plates (Corning) and subsequently maintained in an incubator at 37° C., 5% CO2 and 95% humidity for 8 to 10 days. After 3 and 7 days, 40% of media was renewed under sterile conditions.
Neurons seeded in the assay plates were washed with Hank’s balanced salt solution (HBSS) devoid of Ca^2+ and Mg^2+, supplemented with 20 mM HEPES (Life Technologies) and 2 mM CaCl2 (Sigma), pH 7.4 (hereafter called Assay buffer) using a Biotek EL406 plate washer. Neurons were loaded with 1 µM Fluo-8 AM in Assay buffer for 15 min at 37° C., 5% CO2. […]

[3] = molecular target: T1, Kv7.2/7.3 (human KCNQ2 and KCNQ3 genes) in HEK293 cells (Homo sapiens, UniProt O43525+O43526); assay: Kv7.2/3 assay (FLIPR potassium assay, agonist mode); format: cell-based; conditions: Kv7.2/7.3 activation, responses relative to Flupirtine
T1 construct: host or cells: HEK293
Method: HEK293 cells were stably transfected with the appropriate ion channel cDNA(s) (human KCNQ2 and KCNQ3 genes). Cells were cultured in Dulbecco’s Modified Eagle Medium /Nutrient mixture F-12 (D-MEM/F-12) supplemented with 10% fetal bovine serum, 100 U/mL penicillin G sodium, 100 µg/mL streptomycin sulfate and selection antibiotics. FLIPR Test Procedure: For FLIPR assay, cells were plated in 384-well black clear-bottomed microtiter plates (BD Biocoat Poly-D-Lysine Multiwell Cell Culture Plate) at 15′000 to 30′000 cells per well. Cells were incubated at 37° C. overnight or until cells reached sufficient density in the wells (near confluent monolayer) to use in fluorescence assays. […] Assays were performed with the FLIPR potassium assay kit (Molecular Devices) according to the manufacturer’s instructions. Dye-loading: Growth media was removed and replaced with 20 µL of dye loading buffer for 60 min at room temperature. FLIPR Recording (agonist mode): Stock solutions of test compounds were prepared at a concentration of 33.3 mM in DMSO. 5 µL of 5x concentrated test, vehicle, or control compounds solutions prepared in the stimulation buffer (K^+-free buffer with 5 mM TI^+) were added to each well and fluorescence recording was continued for 5 min. The agonist effect (EC50 and % effect) of test or control compounds on Kv7 channels was determined as follows: Raw data was exported using Screenworks® 4.2 software and the fluorescence traces were analysed using Microsoft Excel (Microsoft Corp., Redmond, WA). The test compounds responses were expressed as % of maximum response of the control compound Flupirtine (Sigma-Aldrich), which was tested at concentrations ranging from 0.03 to 100 µM. Concentration-response data were fitted to a Hill equation. Non-linear least squares fits were made assuming a simple binding model. If appropriate, fits were weighted by the standard deviation. No assumptions about the fit parameters were made; the fit parameters were determined by the algorithm.

[4] = test system: patients with drug-resistant focal-onset seizures; conditions: two phase three trials; cited from earlier work
[5] = test system: seizure activity in various rodent models; conditions: acute seizure models, DBA2 mice, rat kindling model; cited from earlier work
[6] = test system: Knock-in mice carrying a KCNQ2 or KCNQ3 variant; conditions: knock-in mice with spontaneous seizures, reduced seizure thresholds; cited from earlier work
[7] = 20 min, 20 min after compound addition, AUC of fluorescence, read-out: FLIPR: IC50 [nM] 20 min
[8] = Cortical neurone, acute phase, ratio of AUC fluorescence before and after compound addition, rat cortical neurons, Mg-free buffer, read-out: FLIPR: IC50 [nM] acute

SMILES	Seizure stage [% vs. vehicle] ([1]; 30 mg/kg po)	IC50 [2, 7] [nM]	IC50 [2, 8] [nM]	EC50 [3] [nM]	Seizure stage [% vs. vehicle] ([1]; 15 mg/kg po)	seizure frequency [4]	seizure activity [5]	seizures [6]
O=C(NCc1cccc(OC(F)(F)F)c1)NC12CC(F)(C1)C2 [Example 24, 1-(3-Fluoro-bicyclo[1.1.1]pent-1-yl)-3-(3-trifluoromethoxybenzyl)-urea]	-100	198	208	143				
O=C(NCc1cccc(C(F)(F)F)c1)NC12CC(C(F)(F)F)(C1)C2 [Example 37, 1-(3-Trifluoromethyl-benzyl)-3-(3-trifluoromethyl-bicyclo[1.1.1]pent-1-yl)-urea]		32	26	30	-100			
CCOC(=O)Nc1ccc(NCc2ccc(F)cc2)cc1N [Retigabine/ezogabine]						significantly reduced seizure frequency	reduces seizure activity	attenuated
